From US20230364196A1, “METHODS FOR TREATING GRAFT-VERSUS-HOST DISEASE USING GLP-2 AGONISTS AND ANALOGUES THEREOF” (THE TRUSTEES OF COLUMBIA UNIVERSITY IN THE CITY OF NEW YORK, priority 2021, published 2023)
“Also recorded” adds a separate entry of the source.

How the values were obtained:
Format in all cases: in vivo, mouse
[1] = system: BALB/C mice, lethal TBI and allogeneic transplantation; experiment: Cage conditions experiment in allogeneic transplant (co-housed, separate, separate plus antibiotics); conditions: caged separately plus antibiotics D-2 to D+14; listed as GLP-2
From the text: BALB/C mice underwent lethal TBI and allogeneic transplantation were assigned to 3 cage conditions to perturb their microbial composition: 1) vehicle and GLP-2 treated animals housed together, 2) treatment groups housed separately or 3) treatment groups housed separately and provided with neomycin and polymyxin-b in their drinking water from D-2 to D+14 post-transplant.
We then assessed the role of microbial communities in the protective effect of GLP-2 by conducting an allogeneic transplant with 3 caging conditions; 1) vehicle and GLP-2 treated mice caged together, 2) caged separately, or 3) caged separately plus oral antibiotics.

[2] = system: BALB/C mice, syngeneic transplant; experiment: Innate immune cells of the lamina propria after syngeneic transplant; conditions: for recovery of mature (P4) lamina propria macrophages: D+7, vs vehicle
From the text: To assess the impact of GLP-2 on macrophage maturation in the absence of inflammatory GVHD, BALB/C mice were transplanted with T-cell depleted bone marrow from BALB/C donors and given daily S.C. injections of GLP-2 as mentioned above. […] P1-P4 macrophages were gated as CD45+CD19^−CD3-Ly6G^− and CD11b^+ or CD11c^+. Subsets of the “monocyte-waterfall” were gated as: P1: CD64^−/low Ly6C^+MHC II^− CX3CR1^−/low; P2: CD64^low/+Ly6C^+ MHC II^+ CX3CR1^−/low; P3: CD64^+ Ly6C^−MHC II^+ CX3CR1^−/low; P4: CD64^+Ly6C^−MHC II^+ CX3CR1^+. N=4 per treatment group.
Daily subcutaneous injection of GLP-2 increases the relative abundance of lamina propria ILCs in a process that appears to target type-3 ILCs (ILC3s). ILC3s are important immunomodulators of the lamina propria and intestinal stem-cell (ISC) niche via their production of IL-22, playing a role in ISC maintenance. […] ILCs were gated as CD45^+ CD19^− CD3^− Ly6G^− CD11b^− CD11c^− CD127^+, with subsets being assigned based on Tbet (ILC1), GATA-3 (ILC2) and RORgt (ILC3) expression.

[3] = system: major MHC mismatched allogeneic transplant mice; experiment: Mechanistic study in major MHC-mismatched allogeneic transplant (flow cytometry/histology of organs, serum cytokines); conditions: for proportion of Th1 and CD8+ T-cells expressing T-bet (intraepithelial, small intestine): 800 nmol/kg daily subcutaneous; for engraftment of hematopoietic stem cells / donor cells in the spleen: post-transplant elsiglutide vs vehicle, D7
From the text: BALB/C mice underwent lethal TBI. (850 cGy Cs137) and transplantation with 5×10^6 T-cell depleted bone marrow cells and 1×10^6 splenic T-cells from B6 donors (major MHC-mismatch model).
To further explore the mechanism behind the treatment effect observed in Example 4, we used the same experimental design as Example 4. […]

[4] = system: BALB/c syngeneic transplant recipients after high-dose lethal radiation; experiment: Syngeneic transplant after high-dose lethal radiation, different elsiglutide treatment schedules; conditions: for apoptotic bodies within the crypts (TUNEL stain): D4 after radiation
Procedure: This experiment was carried out to determine the effect of daily elsiglutide administration (800 nmol/kg) on weight recovery and bowel weight in response to high dose radiotherapy using different treatment schedules. Syngeneic transplant was performed to rescue the animals from early death due to hematopoietic failure to be able to examine the mice at several time points. […] Treatment with elsiglutide increased small bowel mass after irradiation and syngeneic transplant. The longer the treatment the more pronounced the effect.
TUNEL stain was then performed to assess apoptosis of intestinal epithelial cells on D4 after radiation. We observed a small number of apoptotic bodies within the crypts of all mice at D4 post irradiation and transplantation (FIG. 4).

[5] = system: graft-versus-host disease in lethally-irradiated BALB/c mice transplanted from B6 mice; experiment: GVHD prevention after major MHC-mismatched allogeneic HSCT (2×10^6 splenic T-cells); conditions: 800 nmol/kg/d
From the text: (§1) To determine the effect of elsiglutide treatment on graft-versus-host disease in MHC-mismatched (allogeneic) murine hematopoietic stem-cell transplantation and identify the optimal dosing schedule, in this experiment BALB/c mice were lethally-irradiated and transplanted with bone marrow (5×10^6 cells) from B6 mice plus 2×10^6 splenic T-cells and treated with 800 nmol/kg/d elsiglutide at 4 different treatment schedules (syngeneic transplant and allogeneic transplant with vehicle were used as controls).

[6] = system: intestinal microbiota; experiment: Intestinal microbiota by 16S rRNA sequencing of stool after lethal TBI and syngeneic transplantation
Procedure: Mice undergoing lethal TBI were treated with daily S.C. injections with Elsiglutide (GLP-2) and their stool collected for 16s rRNA sequencing on D+0 (baseline), D+14 and D+28 post-transplant.
To assess potential mechanisms for the differences in macrophage and T-cell phenotype, we examined the impact of GLP-2 on the intestinal microbiota. A syngeneic BALB/cJ model (similar to Example 1) was used to explore the effects of GLP-2 independent of GVHD. Stool samples from D+0, D+14, and D+28 were subjected to 16S rRNA sequencing. Vehicle-treated mice had distinct […] clusters at all time-points, showing a transplant effect on the microbiota (FIG. 28A). […] These taxa have been associated with anti-inflammatory properties and A. muciniphila abundance is linked to epithelial mucin production, which is increased by GLP-2.

[7] = system: major MHC-mismatched GVHD model, BALB/c mice; experiment: GVHD prevention after allogeneic HSCT with lower T-cell dose (0.5×10^6 splenic T cells)
From the text: as §1
In a subsequent experiment, we used the same design as Example 3 but with T-cell depleted (TCD) bone marrow (BM) cells (5×10^6 cells) and a lower T-cell dose (0.5×10^6 splenic T cells) to allow examination of survival differences in a major MHC-mismatched GVHD model (aggressive GVHD model). As treatment effect was similar in this experiment for groups 3-4 and 5-6, these groups were combined into an “elsiglutide pre-transplant” group and an “elsiglutide post-transplant” group for presentation. In addition, animals originally designated to end treatment on D4 resumed treatment on D9 and continued until D30 or SAC. This time, the administration of elsiglutide beginning on D1 post-transplantation rescued 100% of mice from lethal GVHD along with improvement in GVHD scores and weight. […] Control mice (allogeneic transplant with vehicle control) had 100% mortality as expected and syngeneic control mice had 100% survival as expected (FIG. 10). This further supports the hypothesis that the timing of administration of the drug (post- vs. pre-radiation conditioning) is critical.

[8] = system: healthy BALB/c mice; experiment: Escalating elsiglutide doses in healthy mice (no irradiation or transplant)
Procedure: In this experiment elsiglutide at escalating doses (200-800 nmol/kg/d) was injected to healthy mice without irradiation or chemotherapy for 10 days.
In this experiment we also performed Ki67 stains to document the proliferation of crypt cells in response to elsiglutide (FIG. 7). In healthy mice treated with vehicle Ki67 immunoreactivity was predominantly confined to the crypts where the stem cells reside.

[9] = D+21 post-transplant, listed as Elsiglutide
[10] = post-transplant elsiglutide, allogeneic transplant

With elsiglutide the “effect of oral antibiotics (neomycin and polymyxin-b) on the survival benefit of treatment” value [1] was “dampened the beneficial effect; also recorded: reduced the efficacy”, the ILC3 [2] was “significant increase” and the “recovery of mature (P4) lamina propria macrophages” value [2] was “improved recovery”. For the same substance, the “recovery of mature (P4) lamina propria macrophages” value ([2]; listed as GLP-2) was “increased shift”, the “recovery / relative abundance of lamina propria ILCs” value ([2]; D+14) was “improved” and the “recovery / relative abundance of lamina propria ILCs” value ([2]; D+14, listed as GLP-2) was “increases”. For the same substance, the “proportion of Th1 and CD8+ T-cells expressing T-bet (intraepithelial, small intestine)” value [3] was “lower proportion”, the “proportion of Th1 and CD8+ T-cells expressing T-bet (intraepithelial, small intestine)” value ([3]; listed as Elsiglutide) was “reduced” and the “interferon gamma in the serum” value ([3]; D+21 after transplant, vs vehicle) was “lower levels”. For the same substance, the “co-stimulatory molecules and SIRPα on lamina propria macrophages” value ([3]; D+21 post-transplant) was “reduced expression of co-stimulatory molecules and increased SIRPα”, the “lamina propria macrophages with tolerogenic/mature phenotype (higher CX3CR1, SIRP-alpha; lower CD80, CD86, CD206)” value ([3]; D+21 post-transplant) was “increase” and the “Ly6C^high MHC-II^low immature macrophages” value [3, 9] was “decrease; also recorded: significant reduction”. The “lamina propria macrophages with tolerogenic/mature phenotype (higher CX3CR1, SIRP-alpha; lower CD80, CD86, CD206)” value [3, 9] was “increased prevalence”, the “recovery of innate lymphoid cell (ILC) subtypes in lamina propria” value ([3]; allogeneic setting, D+14 post-transplant) was “did not enhance recovery of any ILC subtype” and the T-cell activation ([3]; day 7 after transplant) was “reduced”. For the same substance, the “engraftment of hematopoietic stem cells / donor cells in the spleen” value [3] was “did not impair”, the “engraftment of hematopoietic stem cells / donor cells in the spleen” value ([3]; listed as elsigltide) was “comparable engraftment” and the body weight loss [3, 10] was “absence of weight loss”. For the same substance, the “small bowel mass and length” value [3, 10] was “increase”, the “lung inflammation, macroscopic assessment (1×)” value ([3]; vs allogeneic transplant mice with vehicle) was “fewer areas of inflammation and healthier appearing lung tissue” and the “CD44 expression on gut T-cells” value ([3]; vs vehicle) was “higher”. For the same substance, the “expression of adhesion molecules on gut lamina propria T-cells (CD103 on CD4 T-cells)” value ([3]; vs vehicle) was “decreased; also recorded: lower”, the “lung infiltrates and alveolar wall thickening (20×)” value ([3]; vs vehicle) was “decreased infiltration and less alveolar wall thickening” and the “CD3+ T-cell infiltration in colon and small bowel (immunohistochemistry)” value ([3]; vs vehicle treated mice) was “decreased T-cell infiltration with more focal and less diffuse pattern of infiltration and fewer intraepithelial T-cells”. The “T-EMRA cells in CD4 and CD8 T-cells, IEL and LPL” value ([3]; vs vehicle-treated mice) was “fewer”, the “alveolar diameter and alveolar wall thickness” value ([3]; vs vehicle-treated mice) was “decreased inflammation and alveolar damage” and the “inflammation in the liver portal triads” value ([3]; vs vehicle-treated mice, 20× magnification) was “decreased inflammation”. For the same substance, the “weight recovery after high dose radiotherapy” value ([4]; 800 nmol/kg daily, several treatment schedules) was “without a clear effect”, the “weight recovery after radiation” value ([4]; 800 nmol/kg daily, treatment start on D-3) was “slightly worse than other schedules” and the “small bowel mass after irradiation and syngeneic transplant” value ([4]; 800 nmol/kg daily, longer treatment more pronounced) was “increased”. The “apoptotic bodies within the crypts (TUNEL stain)” value ([4]; pre-transplant treated animals (D-7), vs vehicle) was “increased abundance of apoptotic bodies”, the “apoptotic bodies within the crypts (TUNEL stain)” value ([4]; treatment D-7 to D-3 then resumed on D1) was “very few apoptotic bodies” and the “apoptotic bodies within the crypts (TUNEL stain)” value ([4]; treatment beginning D1 post-transplant) was “almost no apoptotic bodies”. The “villi length and crypt depth (histology, distal small bowel)” value ([4]; after radiation, longer courses most pronounced) was “enhanced”, the “small bowel weight and length” value ([5]; 4 treatment schedules, p<0.0001, not dependent on schedule) was “increase” and the GVHD outcome ([5]; 2×10^6 T-cell dose, all mice except 1 from −D3-D4 group, euthanized by D8) was “developed severe GvHD by D6”. The “abundance of Bacteroidales S24-7 family” value ([6]; D+14 and D+28) was “significantly enriched”, the “abundance of Akkermansia muciniphila” value ([6]; D+14 and D+28, listed as GLP-2) was “significantly enriched; also recorded: increased” and the “β-diversity of stool microbiota by D+28” value ([6]; continual treatment) was “shifts in β-diversity”. For the same substance, the “β-diversity clusters of stool microbiota, D+0 vs D+14” value ([6]; daily S.C. injections, listed as GLP-2) was “near-complete cluster overlap; also recorded: overlap between D+0 and D+14 samples”, the “GVHD scores and weight” value ([7]; elsiglutide beginning on D1 post-transplantation) was “improvement” and the “mice rescued from lethal GVHD” value ([7]; elsiglutide beginning on D1 post-transplantation, through day 35) was 100%. The “mice surviving long term” value ([7]; post-transplant elsiglutide group, after discontinuation of treatment (day 30)) was 50%, the “GVHD scores and weight in surviving mice” value ([7]; pre-transplant elsiglutide) was “still had an effect” and the “mice rescued from death” value ([7]; pre-transplant elsiglutide, through day 35) was 40%. For the same substance, the “Ki67 staining, difference between doses” value ([8]; 200-800 nmol/kg/d) was “no obvious difference”, the “total body weight over baseline” value ([8]; 200-800 nmol/kg/d for 10 days, unirradiated) was “enhanced; also recorded: dose-dependent weight increase” and the “weight of small and large bowel” value ([8]; 200-800 nmol/kg/d, by day 10) was “enhanced; also recorded: dose-dependent increase”. The “Ki67 proliferation staining of crypt cells” value ([8]; vs vehicle-treated healthy mice) was “extended further out of the crypts into the villi”.
